Results from patent US20110166121A1 (LG LIFE SCIENCES LTD., priority 2008, published 2011).
Structures can show the parent of a compound that is named as a salt.

System: Human platelet aggregation caused by ADP
Assay: Inhibition of ADP-induced platelet aggregation (Mimic-human PRP)
Type: cell-based
Conditions: 20 μM ADP, human platelet concentrate diluted with PPP, absorption at 595 nm
Outline: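 Ki came from non-linear sigmoidal fits of inhibition, measured as the 3-min rise in absorbance at 595 nm after 20 μM ADP, relative to 0/20 μM ADP controls. Platelets (3–4×10^8/mL in PPP-diluted human PRP) were exposed to 0.01–30 μM compound for 20 min at room temperature beforehand.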

Going from `CCCc1cc2c(N3CCn4c(nnc4C(F)(F)F)C3)nc(N3CC[C@H](NC(=O)COC)C3)nc2s1` [Example 1-102, 2-Methoxy-N-{(S)-1-[6-propyl-4-(3-trifluoromethyl-5,6-dihydro-8H-[1,2,4]triazolo[4,3-a]pyrazin-7-yl)-thieno[2,3-d]pyrimidin-2-yl]-pyrrolidin-3-yl}-acetamide] to `CCCC(=O)N[C@@H]1CCN(c2nc(N3CCn4c(nnc4C(F)(F)F)C3)c3cc(CCC)sc3n2)C1` [Example 7-4, Hydrochloric acid salt of N-{(R)-1-[6-Propyl-4-(3-trifluoromethyl-5,6-dihydro-8H-[1,2,4]triazolo[4,3-a]pyrazin-7-yl)-thieno[2,3-d]pyrimidin-2-yl]-pyrrolidin-3-yl}-butyramide], the Ki rises from 8.6 nM to 75 nM (8.7-fold).

First: CCCc1cc2c(N3CCn4c(nnc4C(F)(F)F)C3)nc(N3CC[C@H](CNC(=O)C(C)C)C3)nc2s1 [Example 8-6, N-{(R)-1-[6-Propyl-4-(3-trifluoromethyl-5,6-dihydro-8H-[1,2,4]triazolo[4,3-a]pyrazin-7-yl)-thieno[2,3-d]pyrimidin-2-yl]-pyrrolidin-3-ylmethyl}-isobutyramide]
Second: CCCc1cc2c(N3CCn4c(nnc4C(F)(F)F)C3)nc(N3CC[C@@H](CNC(=O)C(C)C)C3)nc2s1 [Example 8-3, N-{(S)-1-[6-Propyl-4-(3-trifluoromethyl-5,6-dihydro-8H-[1,2,4]triazolo[4,3-a]pyrazin-7-yl)-thieno[2,3-d]pyrimidin-2-yl]-pyrrolidin-3-ylmethyl}-isobutyramide]
The Ki of the first is 2.8-fold lower: 120 nM for the first, 330 nM for the second.

`CCCc1cc2c(N3CCn4c(nnc4C(F)(F)F)C3)nc(Nc3cc[nH]n3)nc2s1` [Example 9-53, [6-Propyl-4-(3-trifluoromethyl-5,6-dihydro-8H-[1,2,4]triazolo[4,3-a]pyrazin-7-yl)-thieno[2,3-d]pyrimidin-2-yl]-(1H-pyrazol-3-yl)-amine] and `CCCc1cc2c(N3CCn4c(nnc4C(F)(F)F)C3)nc(N3CCNC3=O)nc2s1` [Example 9-33, 1-[6-Propyl-4-(3-trifluoromethyl-5,6-dihydro-8H-[1,2,4]triazolo[4,3-a]pyrazin-7-yl)-thieno[2,3-d]pyrimidin-2-yl]-imidazolidin-2-one] are within 1.5-fold of each other in Ki: 31 nM for the first, 41 nM for the second.

Going from `CCCc1cc2c(N3CCn4c(nnc4C(F)(F)F)C3)nc(N3CC[C@H](NC(=O)c4cc(F)c(F)c(F)c4)C3)nc2s1` [Example 9-13, 3,4,5-Trifluoro-N-{(S)-1-[6-propyl-4-(3-trifluoromethyl-5,6-dihydro-8H-[1,2,4]triazolo[4,3-a]pyrazin-7-yl)-thieno[2,3-d]pyrimidin-2-yl]-pyrrolidin-3-yl}-benzamide] to `CCCc1cc2c(N3CCn4c(nnc4C(F)(F)F)C3)nc(N3CC[C@H](NC(=O)C(C)C)C3)nc2s1` [Example 7-2, Hydrochloric acid salt of N-{(S)-1-[6-Propyl-4-(3-trifluoromethyl-5,6-dihydro-8H-[1,2,4]triazolo[4,3-a]pyrazin-7-yl)-thieno[2,3-d]pyrimidin-2-yl]-pyrrolidin-3-yl}-isobutyramide], the Ki falls from 300 nM to 79 nM (3.8-fold). The second binds more tightly here.

Compared with `CCCc1cc2c(N3CCn4c(nnc4C(F)(F)F)C3)nc(N3CCC[C@H](NC(C)=O)C3)nc2s1` [Example 7-9, Hydrochloric acid salt of N-{(S)-1-[6-Propyl-4-(3-trifluoromethyl-5,6-dihydro-8H-[1,2,4]triazolo[4,3-a]pyrazin-7-yl)-thieno[2,3-d]pyrimidin-2-yl]-piperidin-3-yl}-acetamide], `CCCc1cc2c(N3CCn4c(nnc4C(F)(F)F)C3)nc(N3CCC[C@H](NC(=O)C(C)C)C3)nc2s1` [Example 7-11, Hydrochloric acid salt of N-{(S)-1-[6-Propyl-4-(3-trifluoromethyl-5,6-dihydro-8H-[1,2,4]triazolo[4,3-a]pyrazin-7-yl)-thieno[2,3-d]pyrimidin-2-yl]-piperidin-3-yl}-isobutyramide] is 2.1-fold lower in Ki: 590 nM for the first, 280 nM for the second.

Compared with `CCCc1cc2c(N3CCn4c(nnc4C(F)(F)F)C3)nc(OC[C@@H]3CCCN3)nc2s1` [Example 7-37, Hydrochloric acid salt of 7-[6-Propyl-2-((S)-1-pyrrolidin-2-ylmethoxy)-thieno[2,3-d]pyrimidin-4-yl]-3-trifluoromethyl-5,6,7,8-tetrahydro-[1,2,4]triazolo[4,3-a]pyrazine], `CCCc1cc2c(N3CCn4c(nnc4C(F)(F)F)C3)nc(OC[C@@H]3CCN(C(=O)C(C)C)C3)nc2s1` [Example 8-36, 2-Methyl-1-{(R)-3-[6-propyl-4-(3-trifluoromethyl-5,6-dihydro-8H-[1,2,4]triazolo[4,3-a]pyrazin-7-yl)-thieno[2,3-d]pyrimidin-2-yloxymethyl]-pyrrolidin-1-yl}-propan-1-one] is 6.2-fold lower in Ki: 280 nM for the first, 45 nM for the second. The second binds more tightly here.

First: CCCc1cc2c(N3CCn4c(nnc4C(F)(F)F)C3)nc(OCC(C)(C)NC(=O)OC)nc2s1 [Example 9-82, {1,1-Dimethyl-2-[6-propyl-4-(3-trifluoromethyl-5,6-dihydro-8H-[1,2,4]triazolo[4,3-a]pyrazin-7-yl)-thieno[2,3-d]pyrimidin-2-yloxy]-ethyl}-carbamic acid methyl ester]
Second: CCCc1cc2c(N3CCn4c(nnc4C(F)(F)F)C3)nc(OCCNC(=O)C(C)C)nc2s1 [Example 7-31, N-{2-[6-Propyl-4-(3-trifluoromethyl-5,6-dihydro-8H-[1,2,4]triazolo[4,3-a]pyrazin-7-yl)-thieno[2,3-d]pyrimidin-2-yloxy]-ethyl}-isobutyramide]
The Ki of the first is 2.4-fold lower: 5 nM for the first, 12 nM for the second.

First: CCCc1cc2c(N3CCn4c(nnc4C(F)(F)F)C3)nc(NC[C@@H]3CCN(C(=O)C(C)C)C3)nc2s1 [Example 8-21, 2-Methyl-1-((S)-3-{[6-propyl-4-(3-trifluoromethyl-5,6-dihydro-8H-[1,2,4]triazolo[4,3-a]pyrazin-7-yl)-thieno[2,3-d]pyrimidin-2-ylamino]-methyl}-pyrrolidin-1-yl)-propan-1-one]
Second: CCCc1cc2c(N3CCn4c(nnc4C(F)(F)F)C3)nc(N[C@H]3CCN(C(=O)C(C)C)C3)nc2s1 [Example 8-15, 2-Methyl-1-{(S)-3-[6-propyl-4-(3-trifluoromethyl-5,6-dihydro-8H-[1,2,4]triazolo[4,3-a]pyrazin-7-yl)-thieno[2,3-d]pyrimidin-2-ylamino]-pyrrolidin-1-yl}-propan-1-one]
The Ki of the first is 39-fold higher: 270 nM for the first, 7 nM for the second.

First: CCC(=O)c1cc2c(N3CCn4c(nnc4C(F)(F)F)C3)nc(OCCC(=O)O)nc2s1 [Example 9-61, 3-[6-Propionyl-4-(3-trifluoromethyl-5,6-dihydro-8H-[1,2,4]triazolo[4,3-a]pyrazin-7-yl)-thieno[2,3-d]pyrimidin-2-yloxy]-propionic acid]
Second: CCCC(=O)NCCOc1nc(N2CCn3c(nnc3C(F)(F)F)C2)c2cc(CCC)sc2n1 [Example 7-30, N-{2-[6-Propyl-4-(3-trifluoromethyl-5,6-dihydro-8H-[1,2,4]triazolo[4,3-a]pyrazin-7-yl)-thieno[2,3-d]pyrimidin-2-yloxy]-ethyl}-butyramide]
The Ki of the first is higher: greater than 10000 nM for the first, 7.2 nM for the second. The second binds more tightly here.

Going from `CCCc1cc2c(N3CCn4c(nnc4C(F)(F)F)C3)nc(OC(C)CNC(C)=O)nc2s1` (centres unmarked) [Example 9-76, N-{2-[6-Propyl-4-(3-trifluoromethyl-5,6-dihydro-8H-[1,2,4]triazolo[4,3-a]pyrazin-7-yl)-thieno[2,3-d]pyrimidin-2-yloxy]-propyl}-acetamide] to `CCCc1cc2c(N3CCn4c(nnc4C(F)(F)F)C3)nc(OCCN(CCOC(C)=O)C(C)=O)nc2s1` [Example 9-100, Acetic Acid 2-(acetyl-{2-[6-propyl-4-(3-trifluoromethyl-5,6-dihydro-8H-[1,2,4]triazolo[4,3-a]pyrazin-7-yl)-thieno[2,3-d]pyrimidin-2-yloxy]-ethyl}-amino)-ethyl ester], the Ki rises from 22 nM to 38 nM (1.7-fold).

`CCCC(=O)N[C@@H]1CCCN(c2nc(N3CCn4c(nnc4C(F)(F)F)C3)c3cc(CCC)sc3n2)C1` [Example 7-7, Hydrochloric acid salt of N-{(R)-1-[6-Propyl-4-(3-trifluoromethyl-5,6-dihydro-8H-[1,2,4]triazolo[4,3-a]pyrazin-7-yl)-thieno[2,3-d]pyrimidin-2-yl]-piperidin-3-yl}-butyramide] and `CCCC(=O)NC1CCN(c2nc(N3CCn4c(nnc4C(F)(F)F)C3)c3cc(CCC)sc3n2)CC1` [Example 7-13, Hydrochloric acid salt of N-{1-[6-Propyl-4-(3-trifluoromethyl-5,6-dihydro-8H-[1,2,4]triazolo[4,3-a]pyrazin-7-yl)-thieno[2,3-d]pyrimidin-2-yl]-piperidin-4-yl}-butyramide] are within 1.5-fold of each other in Ki: 63 nM for the first, 76 nM for the second.

First: CCCc1cc2c(N3CCn4c(nnc4C(F)(F)F)C3)nc(OCCCN3CCCC3=O)nc2s1 [Example 9-85, 1-{3-[6-Propyl-4-(3-trifluoromethyl-5,6-dihydro-8H-[1,2,4]triazolo[4,3-a]pyrazin-7-yl)-thieno[2,3-d]pyrimidin-2-yloxy]-propyl}-pyrrolidin-2-one]
Second: CCCc1cc2c(N3CCn4c(nnc4C(F)(F)F)C3)nc(N3CC[C@H](NC(=O)C4CC4)C3)nc2s1 [Example 1-108, Cyclopropanecarboxylic Acid {(S)-1-[6-propyl-4-(3-trifluoromethyl-5,6-dihydro-8H-[1,2,4]triazolo[4,3-a]pyrazin-7-yl)-thieno[2,3-d]pyrimidin-2-yl]-pyrrolidin-3-yl}-amide]
The Ki of the first is 220-fold higher: 2000 nM for the first, 9.3 nM for the second. The second binds more tightly here.

Compared with `CCCc1cc2c(N3CCn4c(nnc4C(F)(F)F)C3)nc(N3CC(O)C(NC(=O)C(C)(C)CO)C3)nc2s1` (centres unmarked) [Example 7-25, 3-Hydroxy-N-{4-hydroxy-1-[6-propyl-4-(3-trifluoromethyl-5,6-dihydro-8H-[1,2,4]triazolo[4,3-a]pyrazin-7-yl)-thieno[2,3-d]pyrimidin-2-yl]-pyrrolidin-3-yl}-2,2-dimethyl-propionamide], `CCCc1cc2c(N3CCn4c(nnc4C(F)(F)F)C3)nc(N3CC(Cl)C(NC(C)=O)C3)nc2s1` (centres unmarked) [Example 9-29, N-{4-Chloro-1-[6-propyl-4-(3-trifluoromethyl-5,6-dihydro-8H-[1,2,4]triazolo[4,3-a]pyrazin-7-yl)-thieno[2,3-d]pyrimidin-2-yl]-pyrrolidin-3-yl}-acetamide] is 8.2-fold lower in Ki: 18 nM for the first, 2.2 nM for the second.
